Assay [1] concerns the target T1, GDP loaded biotinylated KRas^G12C protein (Homo sapiens, UniProt P01116, G12C).
T1 construct: biotin (biotinylated); made in house
The assay can be described thus: KRasG12C functional assay. Type of assay: biochemical. As to conditions: HTRF FRET readout of SOS-mediated nucleotide exchange and GST-Raf RBD binding, samples incubated for 4 hrs. As for the experimental part:
KRasG12C Functional Assay
All enzyme and substrate solutions were prepared in assay buffer containing 20 mM HEPES (pH 7.5), 5 mM MgCl2, 150 mM NaCl, and 0.01% Tween 20. […] In a separate mix 20 nM GST-Raf Ras binding domain (GST-Raf RBD, purified in house) and 4 μg/ml anti-GST XL665 antibody (Cisbio) was prepared in assay buffer containing 50 mM Potassium Fluoride and 0.05 mg/ml BSA and equilibrated for 4 hours before adding 0.6 μM Guanosine 5′-[γ-thio]triphosphate (GTPγS, Sigma) and 0.08 μM SOS (purified in house). 5 μl of the GST-RAF RBD mix was then dispensed into each well of the assay plate. […] This is detected simultaneously via the specific binding interaction between active GTPγS KRas^G12C with GST-Raf RBD which brings the europium and XL665 into close proximity enabling an increased FRET signal to be detected on a Pherastar (BMG) plate reader equipped with the HTRF filter module. […] IC50 values were calculated from normalised dose-response response FRET data curve fitted in Genedata screener (Basel, Switzerland).
For orientation: In TR-FRET formats the signal depends on donor and acceptor labels being close together.

Assay [2] concerns the target T1, GDP loaded biotinylated KRas^G12C protein. The assay can be described thus: KRasG12C mass spectrometry adducting assay. Type of assay: binding. Particulars: test compound final concentration 10 μM, 4 μM KRasG12C, react for 4 hours. The protocol:
KRasG12C Mass Spectrometry Adducting Assay
Enzyme solutions were prepared in assay buffer containing 20 mM HEPES (pH 7.5), 5 mM MgCl2, and 150 mM NaCl. […] The plate was sealed before reading on a Xevo G2 QTOF (Waters) and Acquity LC system (Waters). […] Blank samples were run in between each test sample.
Data was analysed in Mass Lynx software (Waters), the Total ion count (TIC) trace was used and the eluted protein peak data combined. Using the combined spectrum the data was deconvoluted using MaxEnt1 method. The peak area for apo-protein KRas^G12C (APO) and KRAS+relative cmpd mass (adduct) were measured, and a percentage adduct was calculated using the following calculation:
Percent adduct=100*(area of adduct peak/(sum of APO+adduct peaks)

Where [3] appears, read: read-out: KRasG12C functional assay IC50 value.

Where two headings read alike, the source gives them in different places.

T1 sequence (P01116 1-188 isoform P01116-2 G12C): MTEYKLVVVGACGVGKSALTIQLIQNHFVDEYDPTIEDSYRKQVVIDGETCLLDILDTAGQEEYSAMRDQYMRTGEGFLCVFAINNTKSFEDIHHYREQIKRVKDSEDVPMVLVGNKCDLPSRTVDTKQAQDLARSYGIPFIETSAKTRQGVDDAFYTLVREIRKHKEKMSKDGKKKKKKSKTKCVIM

Usually IC50 stands for the point on the concentration scale where inhibition reaches its midpoint. Compound `C=CC(=O)N1CCN2c3ncnc4cc(-c5c(C)ccc6[nH]ncc56)c(Cl)c(c34)OC[C@H]2C1` [Example 7, 1-[(8aR)-6-Chloro-5-(5-methyl-1H-indazol-4-yl)-8a,9,11,12-tetrahydropyrazino-[2′,1′:3,4][1,4]oxazepino[5,6,7-de]quinazolin-10 (8H)-yl]prop-2-en-1-one] displayed an IC50 in assay [1] (KRasG12C functional assay IC50 value (μM)) of 0.214 µM. In addition, the “KRasG12C M.S. Binding Mean adduct %” value in assay [2] amounted to 95%.
Take `C=CC(=O)N1CCN2c3ncnc4c(Cl)c(-c5c(C)ccc6[nH]ncc56)cc(c34)OC[C@@H]2C1` [Example 8, 1-[(8aS)-4-Chloro-5-(5-methyl-1H-indazol-4-yl)-8a,9,11,12-tetrahydropyrazino-[2′,1′:3,4][1,4]oxazepino[5,6,7-de]quinazolin-10 (8H)-yl]prop-2-en-1-one]: the IC50 in assay [1] (setting [3]) came to 0.324 µM. For the same compound, the “KRasG12C M.S. Binding Mean adduct %” value in assay [2] is on record as 81%.
For `C=CC(=O)N1CCN2c3ncnc4cc(-c5c(O)cccc5F)c(Cl)c(c34)OC[C@@H]2C1` [Example 9, 1-[(8aS)-6-Chloro-5-(2-fluoro-6-hydroxyphenyl)-8a,9,11,12-tetrahydropyrazino-[2′,1′:3,4][1,4]oxazepino[5,6,7-de]quinazolin-10 (8H)-yl]prop-2-en-1-one] the same measures were 0.124 µM and 100%.
For `CN(C)C/C=C/C(=O)N1CCN2c3ncnc4cc(-c5c(O)cccc5F)c(Cl)c(c34)OC[C@@H]2C1` [Example 12, (E)-1-((8aS)-6-Chloro-5-(2-fluoro-6-hydroxyphenyl)-8a,9,11,12-tetrahydropyrazino[2′,1′:3,4][1,4]oxazepino[5,6,7-de]quinazolin-10 (8H)-yl)-4-(dimethylamino)but-2-en-1-one] the same measures were 0.381 µM and 76%.
On to `C=CC(=O)N1CCN2c3ncnc4cc(-c5cccc6[nH]c(=O)[nH]c56)c(Cl)c(c34)OC[C@@H]2C1` [Example 13, 4-[(8aS)-10-Acryloyl-6-chloro-8,8a,9,10,11,12-hexahydropyrazino[2′,1′:3,4][1,4]-oxazepino[5,6,7-de]quinazolin-5-yl]-1,3-dihydro-2H-benzimidazol-2-one], for which the IC50 in assay [1] (setting [3]) amounted to 2 µM. Moreover, the “KRasG12C M.S. Binding Mean adduct %” value in assay [2] was found to be 64%.
For `C=CC(=O)N1CCN2c3ncnc4cc(-c5c(C)cnc6[nH]ncc56)c(Cl)c(c34)OC[C@@H]2C1` [Example 14, 1-[(8aS)-6-Chloro-5-(5-methyl-1H-pyrazolo[3,4-b]pyridin-4-yl)-8a,9,11,12-tetrahydro-pyrazino[2′,1′:3,4][1,4]oxazepino[5,6,7-de]quinazolin-10 (8H)-yl]prop-2-en-1-one], in that order: 2.54 µM and 53%.
For `C=CC(=O)N1CCN2c3ncnc4cc(-c5ccc6oc(N)nc6c5)c(Cl)c(c34)OC[C@@H]2C1` [Example 21, 1-[(8aS)-5-(2-Amino-1,3-benzoxazol-5-yl)-6-chloro-8a,9,11,12-tetrahydropyrazino[2′,1′:3,4][1,4]-oxazepino[5,6,7-de]quinazolin-10(8H)-yl]prop-2-en-1-one] the same measures were 7.18 µM and 20%.
For `C=CC(=O)N1CCN2c3ncnc4cc(-c5cccc6c5oc(=O)n6C)c(Cl)c(c34)OC[C@@H]2C1` [Example 22, 7-[(8aS)-10-Acryloyl-6-chloro-8,8a,9,10,11,12-hexahydropyrazino[2′,1′:3,4][1,4]oxazepino[5,6,7-de]quinazolin-5-yl]-3-methyl-1,3-benzoxazol-2(3H)-one] the same measures were 1.77 µM and 34%.
For `C=CC(=O)N1CCN2c3ncnc4cc(-c5cccc(NC(C)=O)c5)c(Cl)c(c34)OC[C@@H]2C1` [Example 23, N-{3-[(8aS)-10-Acryloyl-6-chloro-8,8a,9,10,11,12-hexahydropyrazino[2′,1′:3,4][1,4]oxazepino[5,6,7-de]quinazolin-5-yl]phenyl}acetamide], in assay [1] (setting [3]), the IC50 was 8.84 µM. In addition, in assay [2], the “KRasG12C M.S. Binding Mean adduct %” value was found to be 20%.
For `C=CC(=O)N1CCN2c3ncnc4cc(-c5cccc6c5OCCOC6)c(Cl)c(c34)OC[C@@H]2C1` [Example 24, 1-[(8aS)-6-Chloro-5-(2,3-dihydro-5H-1,4-benzodioxepin-9-yl)-8a,9,11,12-tetrahydropyrazino[2′,1′:3,4][1,4]oxazepino[5,6,7-de]quinazolin-10(8H)-yl]prop-2-en-1-one], in that order: 4.41 µM and 27%.
For `C=CC(=O)N1CCN2c3ncnc4cc(-c5c(F)cccc5OC)c(Cl)c(c34)OC[C@@H]2C1` [Example 25, 1-[(8aS)-6-Chloro-5-(2-fluoro-6-methoxyphenyl)-8a,9,11,12-tetrahydropyrazino[2′,1′:3,4][1,4]oxazepino[5,6,7-de]quinazolin-10(8H)-yl]prop-2-en-1-one], in that order: 0.616 µM and 89%.
For `C=CC(=O)N1CCN2c3ncnc4cc(-c5cccc(F)c5OC)c(Cl)c(c34)OC[C@@H]2C1` [Example 26, 1-[(8aS)-6-Chloro-5-(3-fluoro-2-methoxyphenyl)-8a,9,11,12-tetrahydropyrazino[2′,1′:3,4][1,4]oxazepino[5,6,7-de]quinazolin-10(8H)-yl]prop-2-en-1-one] the same measures were 2.06 µM and 71%.
Take `C=CC(=O)N1CCN2c3ncnc4cc(-c5cccc(OC)c5O)c(Cl)c(c34)OC[C@@H]2C1` [Example 27, 1-[(8aS)-6-Chloro-5-(2-hydroxy-3-methoxyphenyl)-8a,9,11,12-tetrahydropyrazino[2′,1′:3,4][1,4]oxazepino[5,6,7-de]quinazolin-10(8H)-yl]prop-2-en-1-one]: the IC50 in assay [1] (setting [3]) was determined as 3.03 µM. The “KRasG12C M.S. Binding Mean adduct %” value in assay [2] was 73%.
For `C=CC(=O)N1CCN2c3ncnc4cc(-c5cccc6c5CCCOC6)c(Cl)c(c34)OC[C@@H]2C1` [Example 28, 1-[(8aS)-6-Chloro-5-(1,3,4,5-tetrahydro-2-benzoxepin-6-yl)-8a,9,11,12-tetrahydropyrazino[2′,1′:3,4][1,4]oxazepino[5,6,7-de]quinazolin-10(8H)-yl]prop-2-en-1-one] the same measures were 9.93 µM and 26%.
With `C=CC(=O)N1CCN2c3ncnc4cc(-c5ccccc5S(C)(=O)=O)c(Cl)c(c34)OC[C@@H]2C1` [Example 29, 1-[(8aS)-6-Chloro-5-[2-(methylsulfonyl)phenyl]-8a,9,11,12-tetrahydropyrazino[2′,1′:3,4][1,4]oxazepino[5,6,7-de]quinazolin-10(8H)-yl]prop-2-en-1-one], the IC50 in assay [1] (setting [3]) came to 5.02 µM. Moreover, in assay [2], the “KRasG12C M.S. Binding Mean adduct %” value turned out to be 45%.
For `C=CC(=O)N1CCN2c3ncnc4cc(-c5ccccc5C(=O)NC)c(Cl)c(c34)OC[C@@H]2C1` [Example 30, 2-[(8aS)-10-Acryloyl-6-chloro-8,8a,9,10,11,12-hexahydropyrazino[2′,1′:3,4][1,4]oxazepino[5,6,7-de]quinazolin-5-yl]-N-methylbenzamide] the same measures were 9.41 µM and 22%.
For `C=CC(=O)N1CCN2c3ncnc4cc(-c5cccc(S(N)(=O)=O)c5)c(Cl)c(c34)OC[C@@H]2C1` [Example 31, 3-[(8aS)-10-Acryloyl-6-chloro-8,8a,9,10,11,12-hexahydropyrazino[2′,1′:3,4][1,4]oxazepino[5,6,7-de]quinazolin-5-yl]benzenesulfonamide], in that order: 6.97 µM and 14%.
For `C=CC(=O)N1CCN2c3ncnc4cc(-c5cccc6nccnc56)c(Cl)c(c34)OC[C@@H]2C1` [Example 32, 1-[(8aS)-6-Chloro-5-(quinoxalin-5-yl)-8a,9,11,12-tetrahydropyrazino[2′,1′:3,4][1,4]oxazepino[5,6,7-de]quinazolin-10(8H)-yl]prop-2-en-1-one], in that order: 8.32 µM and 33%.
In the case of `C=CC(=O)N1CCN2c3ncnc4cc(-c5cccc(NC(=O)OC)c5)c(Cl)c(c34)OC[C@@H]2C1` [Example 33, Methyl {3-[(8aS)-10-Acryloyl-6-chloro-8,8a,9,10,11,12-hexahydropyrazino[2′,1′:3,4][1,4]oxazepino[5,6,7-de]quinazolin-5-yl]phenyl}carbamate], the IC50 in assay [1] (setting [3]) is 6.91 µM. Moreover, in assay [2], the “KRasG12C M.S. Binding Mean adduct %” value is on record as 24%.

These data come from patent publication US20220127281A1, “HETEROARYL COMPOUNDS THAT INHIBIT G12C MUTANT RAS PROTEINS” (AstraZeneca AB, priority 2017, published 2022).
